Source: patent publication US5968920A, “Compounds having a benzisoselen-azoline and -azine structure, method for preparing same and therapeutic uses thereof” (Oxis Isle of Man, Limited, priority 1994, dated 1999)

Assays:
endothelial cells [1] = assay: Viability of endothelial cells subjected to linoleic acid hydroperoxide (MTT); type: cell-based, human; conditions: compound 4 μM, 1 h; 18:2-OOH 50 μM, 2 h; MTT after about twenty hours
Procedure: Human endothelial cells were cultivated at 37° C. in multi-hole plates or Petri dishes in an atmosphere of saturated humidity constituted by a gaseous mixture of 95% air and 5% of CO2. The culture medium was constituted by a M 199 medium, pH=7.4, containing 20% of foetal calf serum, 2 mM of L-glutamine, 100 U/ml of penicillin, 100 μg/ml of streptomycin and 1% by volume of a medium supplement containing heparin and a cell growth factor.
When the cells were near confluence, they were incubated for one hour in the presence or absence of one of the following compounds: BXT-51056, BXT-51072, BXT-51077, or ebelsen. Each of these compounds was incorporated at 4 μM into culture medium containing 2% of foetal calf serum, all other conditions being the same.
After washing the cells three successive times with a PBS buffer, they were incubated in the presence or absence (control) of linoleic acid hydroperoxide (18:2-OOH), 50 μM, in the culture medium defined above. […] After about twenty hours, the viability of the cells was determined by measurement using the bromide of 3-(4,5-dimethylthiazol-2-yl)-2,5-diphenyl-2H-tetrazolium (MTT).
The results are shown in FIG. 1, expressed as the survival percentage with respect to the control and where the reference is shown by the black rectangle.

endothelial cells [2] = assay: Adhesion of PMN to endothelial cells induced by TNF-α (myeloperoxidase); type: cell-based, human; conditions: compound 10 μM vs pentoxifylline 50 μM; TNF-α 1 ng/ml
Procedure: (§1) Human endothelial cells were cultivated under the same conditions as those described for Example 18.
When the cells were near confluence, they were incubated for one hour in the presence or absence of the following compounds: BXT-51072, BXT-51077 or pentoxifylline. Compounds BXT-51072 and BXT-51077, each at 10 μM, and the pentoxifylline, at 50 μM, were incorporated in culture medium containing 2% of foetal calf serum, all other conditions being the same. […] Myeloperoxidase (MPO), an enzyme specifically contained in PMNs, was then measured in the cell lysates obtained to evaluate adhesion of the PMNs on the endothelial cells. The von Willebrandt factor (vWf) liberated in the culture medium by the endothelial cells was measured after three and a half hours of incubation, as a label of the changes in the cells.
Incubation of the endothelial cells in the presence of PMN and TNF-α led to a very significant increase in the quantity of MPO and vWf with respect to the respective controls (PMN alone, and endothelial cells alone respectively), meaning the adhesion of activated PMNs to the endothelial cells and changes in the latter.
They are expressed as the percentage inhibition by referring the MPO and vWf measurements to the respective concentrations of MPO and vWf determined when the endothelial cells were incubated with TNF-α and PMNs.

interleukin 8 (IL-8) = assay: Endothelial production of interleukin 8 induced by TNF-α; type: cell-based, human; conditions: Homo sapiens, 4 h, read-out: inhibition of IL-8 production induced by TNF-α
Procedure: as §1
When the cells were near confluence, they were incubated for one hour in the presence or absence of the following compounds: BXT-51072, BXT-51077 or ebselen. Each of these compounds was incorporated into culture medium containing 2% of foetal calf serum at 10 μM, all other conditions being the same. […] After four hours of incubation, the interleukin 8 (IL-8) in the culture medium was measured.

rat = assay: Tolerance after repeated oral administration to the rat in vivo; parameters: species or system Sprague-Dawley rat; conditions: 14 days
Procedure: Male adult Sprague-Dawley rats were randomly divided into 4 groups. To one group of 10 rats and another group of 15 rats, one dose of 10 μmoles and one dose of 100 μmoles per kilogram of body weight of BXT-51072 were respectively orally administered (force feeding) each day for 14 days. These doses were administered using an aqueous solution containing 1% of sodium carboxymethylcellulose (CMC). Using the same procedure, a third group of 12 rats received only the vector (1% CMC) and a […] group of 3 rats received no force feeding.
In order to evaluate any toxicity in the test compound, all the animals were regularly weighed over the 14 days. Their appearance and behavior were observed daily.
About 16 hours after the final administration, the rats were anaesthetised with ketamine and blood samples were taken by intra-cardiac tapping to measure different hematological and biochemical parameters. The weight curves of the animals are shown in FIGS. 5 and 6 and Table 3 summarises the results of measurements carried out on the blood of the animals and the corresponding deviations.

[3] = 10 and 100 μmoles/kg oral daily

CC1(C)CN[Se]c2ccccc21 [BXT-51072, 4,4-dimethyl-benzisoselenazine]
protection of the cells from death induced by 18:2-OOH (endothelial cells [1]): significantly protected the cells from death
inhibition of the adhesion of PMN induced by TNF-α (MPO) (endothelial cells [2]): inhibit the adhesion of PMN induced by TNF-α, much more effectively than pentoxifylline
inhibition at 10 µM (interleukin 8 (IL-8)): ≥ 70%
BAS (basophiles) (rat; 10 μmoles/kg oral, n 4): 0%
EOS (eosinophiles) (rat; 10 μmoles/kg oral, n 4): 0%
GB (White cells) (rat; 10 μmoles/kg oral, n 4): 8.45 G/l
GR (Red cells) (rat; 10 μmoles/kg oral, n 4): 6.88 T/l
HB (Hemoglobin) (rat; 10 μmoles/kg oral, n 4): 9.08 mM
HCT (Hematocrit) (rat; 10 μmoles/kg oral, n 4): 0.41
LYM (Lymphocytes) (rat; 10 μmoles/kg oral, n 4): 82%
MON (Monocytes) (rat; 10 μmoles/kg oral, n 4): 0%
NEU (neutrophiles) (rat; 10 μmoles/kg oral, n 4): 18%
PAL (Alkaline phosphalase) (rat; 10 μmoles/kg oral, n 4): 320 Ul/l
PLT (Platelets) (rat; 10 μmoles/kg oral, n 4): 541 G/l
Urea (rat; 10 μmoles/kg oral, n 4): 4.03 mM
VGM (Average cell volume of GR) (rat; 10 μmoles/kg oral, n 4): 59.8 II
K^+ (rat; 10 μmoles/kg oral, n = 1): 5.0 mM
Na^+ (rat; 10 μmoles/kg oral, n = 1): 143 mM
Cl^- (rat; 10 μmoles/kg oral, n = 2): 93 mM
Prot (Proteins) (rat; 10 μmoles/kg oral, n = 2): 53.9 g/L
ALAT (Alanine aminotransferase) (rat; 10 μmoles/kg oral, n = 3): 50 Ul/l
ASAT (Aspartale aminotransferase) (rat; 10 μmoles/kg oral, n = 3): 136 Ul/l
weight gain (rat; 100 μmoles/kg oral daily): slight slowing in weight gain
BAS (basophiles) (rat; 100 μmoles/kg oral, n 7): 0%
EOS (eosinophiles) (rat; 100 μmoles/kg oral, n 7): 1%
GB (White cells) (rat; 100 μmoles/kg oral, n 7): 7.57 G/l
GR (Red cells) (rat; 100 μmoles/kg oral, n 7): 7.44 T/l
HB (Hemoglobin) (rat; 100 μmoles/kg oral, n 7): 9.46 mM
HCT (Hematocrit) (rat; 100 μmoles/kg oral, n 7): 0.43
LYM (Lymphocytes) (rat; 100 μmoles/kg oral, n 7): 81%
MON (Monocytes) (rat; 100 μmoles/kg oral, n 7): 0%
NEU (neutrophiles) (rat; 100 μmoles/kg oral, n 7): 18%
PLT (Platelets) (rat; 100 μmoles/kg oral, n 7): 517 G/l
VGM (Average cell volume of GR) (rat; 100 μmoles/kg oral, n 7): 57.6 II
K^+ (rat; 100 μmoles/kg oral, n = 2): 5.0 mM
Na^+ (rat; 100 μmoles/kg oral, n = 2): 143 mM
ALAT (Alanine aminotransferase) (rat; 100 μmoles/kg oral, n = 4): 58 Ul/l
ASAT (Aspartale aminotransferase) (rat; 100 μmoles/kg oral, n = 4): 133 Ul/l
Cl^- (rat; 100 μmoles/kg oral, n = 4): 93 mM
Prot (Proteins) (rat; 100 μmoles/kg oral, n = 4): 55.0 g/L
PAL (Alkaline phosphalase) (rat; 100 μmoles/kg oral, n = 5): 310 Ul/l
Urea (rat; 100 μmoles/kg oral, n = 5): 4.05 mM
mortality (rat; [3]): none of the animals had died
other signs of toxicity (rat; [3]): no other sign of toxicity
tolerance (rat; repeated oral administration): tolerated well
